For the test, the target named is T1, KRas-G12D (Homo sapiens, UniProt P01116, G12D).
T1 construct: insert the HiBiT tag onto the N-terminus of one or more of the endogenous KRas alleles; host or cells: AsPC-1 HiBiT-KRasG12D knock-in clone (one tagged allele, two untagged KRasG12D alleles)
The test is described as follows: HiBiT Degradation Assay (G12D), AsPC-1 HiBiT-KRasG12D cells, 24 hr. The note with it: for Dmax: ASPC1, AsPC-1 cells, maximum degradation observed; for DC50: AsPC-1 cells. In kind it is cell-based. A digest of the protocol: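 AsPC-1 cells with CRISPR N-terminal HiBiT knock-in on one endogenous KRasG12D allele, treated 24 hr at 37° C with compound titrations in 0.5% DMSO. Lytic HiBiT luminescence normalized to DMSO, fitted to a 4-parameter model for DC50 and Dmax. Parallel alamar blue (4 hr) checked viability.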
Background: HiBiT is a short tag that completes a luciferase, so light tracks the accessible tagged protein.

As usually defined, the Dmax is the largest share of the target that was removed. For orientation: DC50 means the concentration giving 50% degradation. A lower DC50 goes with degradation at low concentration.

A value given as a limit tells only on which side of the number the result lay.

T1 sequence (P01116 1-188 isoform P01116-2 G12D): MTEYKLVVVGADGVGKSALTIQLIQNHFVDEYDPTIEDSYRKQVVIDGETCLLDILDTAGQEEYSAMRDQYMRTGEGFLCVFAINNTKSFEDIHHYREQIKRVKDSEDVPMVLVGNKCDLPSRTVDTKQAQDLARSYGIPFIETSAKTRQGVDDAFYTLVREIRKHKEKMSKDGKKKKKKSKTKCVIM

`C#Cc1c(F)ccc2cc(O)cc(-c3ncc4c(N5CC6CCC(C5)N6)nc(OCCN5CCC(F)(CN6CCC(CC7CCN(c8ccc9c(c8)n(C)c(=O)n9C8CCC(=O)NC8=O)CC7)CC6)CC5)nc4c3F)c12` (stereo not drawn) [Compound 183, 3-{5-[4-({1-[(1-{2-[(4-{3,8-diazabicyclo[3.2.1]octan-3-yl}-7-(8-ethynyl-7-fluoro-3-hydroxynaphthalen-1-yl)-8-fluoropyrido[4,3-d]pyrimidin-2-yl)oxy]ethyl}-4-fluoropiperidin-4-yl)methyl]piperidin-4-yl}methyl)piperidin-1-yl]-3-methyl-2-oxo-2,3-dihydro-1H-1,3-benzodiazol-1-yl}piperidine-2,6-dione]: the Dmax was > 70% and the DC50 is < 5.1 µM.
On to `C#Cc1c(F)ccc2cccc(-c3ncc4c(N5CC6CCC(C5)N6)nc(OC[C@]56CCCN5[C@H](CN5CCN(c7ccc8c(c7)CN(C7CCC(=O)NC7=O)C8=O)CC5)CC6)nc4c3F)c12` (stereo partly drawn) [Compound 145], for which the Dmax is > 70% and the DC50 was in the range of 0.1 to 5.25 µM.
Take `C#Cc1c(F)ccc2cc(O)cc(-c3ncc4c(N5CC6CCC(C5)N6)nc(OCCN5CCC(CN6CCC7(CC6)CCN(c6ccc8c(c6F)CN(C6CCC(=O)NC6=O)C8=O)CC7)CC5)nc4c3F)c12` (stereo not drawn) [Compound 92, 3-(5-{9-[(1-{2-[(4-{3,8-diazabicyclo[3.2.1]octan-3-yl}-7-(8-ethynyl-7-fluoro-3-hydroxynaphthalen-1-yl)-8-fluoropyrido[4,3-d]pyrimidin-2-yl)oxy]ethyl}piperidin-4-yl)methyl]-3,9-diazaspiro[5.5]undecan-3-yl}-4-fluoro-1-oxo-2,3-dihydro-1H-isoindol-2-yl)piperidine-2,6-dione]: the Dmax is > 70% and the DC50 is < 5.1 µM.
Regarding `CCc1cccc2cc(O)cc(-c3ncc4c(N5CC6CCC(C5)N6)nc(OCCN5CCC(CN6CCC7(CC6)CN(c6cccc8c6CN(C6CCC(=O)NC6=O)C8=O)C7)CC5)nc4c3F)c12` (stereo not drawn) [Compound 3], the 50% degradation concentration (DC50) was 0.25 to 1 µM.
As to `CCc1cccc2cc(O)cc(-c3ncc4c(N5CC6CCC(C5)N6)nc(OCCN5CCC(CN6CC7(CCN(c8ccc9c(c8)CN(C8CCC(=O)NC8=O)C9=O)CC7)C6)CC5)nc4c3F)c12` (stereo not drawn) [Compound 2], the Dmax is > 70% and the DC50 is < 5.1 µM.
For `C#Cc1c(F)ccc2cc(O)cc(-c3ncc4c(N5CC6CCC(C5)N6)nc(OCCN5CCC6(CC5)CCN(CC5CCN(c7ccc8c(c7F)n(C)c(=O)n8C7CCC(=O)NC7=O)CC5)CC6)nc4c3F)c12` (stereo not drawn) [Compound 197, 3-(5-{4-[(9-{2-[(4-{3,8-diazabicyclo[3.2.1]octan-3-yl}-7-(8-ethynyl-7-fluoro-3-hydroxynaphthalen-1-yl)-8-fluoropyrido[4,3-d]pyrimidin-2-yl)oxy]ethyl}-3,9-diazaspiro[5.5]undecan-3-yl)methyl]piperidin-1-yl}-4-fluoro-3-methyl-2-oxo-2,3-dihydro-1H-1,3-benzodiazol-1-yl)piperidine-2,6-dione], in that order: > 70% and < 5.1 µM.
In the case of `C#Cc1c(F)ccc2cc(O)cc(-c3ncc4c(N5CC6CCC(C5)N6)nc(OCCN5CCC(CC6(F)CCN(CC7CCN(c8cccc9c8CN(C8CCC(=O)NC8=O)C9=O)CC7)CC6)CC5)nc4c3F)c12` (stereo not drawn) [Compound 131, 3-{4-[4-({4-[(1-{2-[(4-{3,8-diazabicyclo[3.2.1]octan-3-yl}-7-(8-ethynyl-7-fluoro-3-hydroxynaphthalen-1-yl)-8-fluoropyrido[4,3-d]pyrimidin-2-yl)oxy]ethyl}piperidin-4-yl)methyl]-4-fluoropiperidin-1-yl}methyl)piperidin-1-yl]-1-oxo-2,3-dihydro-1H-isoindol-2-yl}piperidine-2,6-dione], the Dmax is > 70% and the DC50 is < 5.1 µM.
`CCc1cccc2cc(O)cc(-c3ncc4c(C5CC6CCC(C5)N6)nc(OC[C@@H]5C[C@@H](OC6CCN(CC7CCN(c8ccc9c(c8)CN(C8CCC(=O)NC8=O)C9=O)CC7)CC6)CN5C)nc4c3F)c12` (stereo partly drawn) [Compound 71]: the Dmax was > 70% and the DC50 was < 5.1 µM.
Consider `CCc1cccc2cc(O)cc(-c3ncc4c(N5CC6CCC(C5)N6)nc(OCCN5CCC(CC6CCN(CC7CCN(c8cccc9c8CN(C8CCC(=O)N(C)C8=O)C9=O)CC7)CC6)CC5)nc4c3F)c12` (stereo not drawn) [Compound 46], for which the DC50 was > 1 µM.
As for `C#Cc1c(F)ccc2cc(O)cc(-c3ncc4c(N5CC6CCC(C5)N6)nc(OCC5(CN6CCC(CC7CCN(c8ccc9c(c8F)CN(C8CCC(=O)NC8=O)C9=O)CC7)CC6)CC5)nc4c3F)c12` (stereo not drawn) [Compound 192, 3-{5-[4-({1-[(1-{[(4-{3,8-diazabicyclo[3.2.1]octan-3-yl}-7-(8-ethynyl-7-fluoro-3-hydroxynaphthalen-1-yl)-8-fluoropyrido[4,3-d]pyrimidin-2-yl)oxy]methyl}cyclopropyl)methyl]piperidin-4-yl}methyl)piperidin-1-yl]-4-fluoro-1-oxo-2,3-dihydro-1H-isoindol-2-yl}piperidine-2,6-dione], the Dmax was > 70% and the 50% degradation concentration (DC50) was < 5.1 µM.
For `CCc1c(F)ccc2cc(O)cc(-c3ncc4c(N5CC6CCC(C5)N6)nc(OC[C@@H]5C[C@@H](OC6CCN(CC7CCN(c8ccc9c(c8F)CN(C8CCC(=O)NC8=O)C9=O)CC7)CC6)CN5C)nc4c3F)c12` (stereo partly drawn) [Compound 178, 3-(5-{4-[(4-{[(3R,5S)-5-{[(4-{3,8-diazabicyclo[3.2.1]octan-3-yl}-7-(8-ethyl-7-fluoro-3-hydroxynaphthalen-1-yl)-8-fluoropyrido[4,3-d]pyrimidin-2-yl)oxy]methyl}-1-methylpyrrolidin-3-yl]oxy}piperidin-1-yl)methyl]piperidin-1-yl}-4-fluoro-1-oxo-2,3-dihydro-1H-isoindol-2-yl)piperidine-2,6-dione], the Dmax was > 70% and the DC50 is < 5.1 µM.
With `CCc1cccc2cc(O)cc(-c3ncc4c(N5CC6CCC(C5)N6)nc(OCCN5CCN(CCN(C)[C@H]6C[C@H](Oc7ccc8c(c7)C(=O)N(C7CCC(=O)NC7=O)C8=O)C6)CC5)nc4c3F)c12` (stereo partly drawn) [Compound 4], the DC50 was > 1 µM.
With `C#Cc1c(F)ccc2cc(O)cc(-c3ncc4c(N5CC6CCC(C5)N6)nc(OCCN5CCC(CN6CCC(CC7CCN(c8cc(C)c9c(c8F)CN(C8CCC(=O)NC8=O)C9=O)CC7)CC6)CC5)nc4c3F)c12` (stereo not drawn) [Compound 170, 3-{5-[4-({1-[(1-{2-[(4-{3,8-diazabicyclo[3.2.1]octan-3-yl}-7-(8-ethynyl-7-fluoro-3-hydroxynaphthalen-1-yl)-8-fluoropyrido[4,3-d]pyrimidin-2-yl)oxy]ethyl}piperidin-4-yl)methyl]piperidin-4-yl}methyl)piperidin-1-yl]-4-fluoro-7-methyl-1-oxo-2,3-dihydro-1H-isoindol-2-yl}piperidine-2,6-dione], the maximal degradation (Dmax) was > 70% and the DC50 is < 5.1 µM.
For `CCc1cccc2cc(O)cc(-c3ncc4c(N5CC6CCC(C5)N6)nc(OCCN5CCC(CCC6CCN(c7ccc8c(c7)C(=O)N(C7CCC(=O)NC7=O)C8=O)CC6)CC5)nc4c3F)c12` (stereo not drawn) [Compound 12], the DC50 was > 1 µM.
In the case of `CCc1cccc2cc(O)cc(-c3ncc4c(N5CC6CCC(C5)N6)nc(OCCN5CCN(CC6CCN(c7ccc(F)c(C(=O)NC8CCC(=O)NC8=O)c7)CC6)CC5)nc4c3F)c12` (stereo not drawn) [Compound 17], the Dmax is ≤ 25% and the DC50 was in the range of 0.25 to 1 µM.
Take `C#Cc1c(F)ccc2cc(O)cc(-c3ccc4c(N5CC6CCC(C5)N6)nc(OCCN5CCC(CN6CCC(CC7CCN(c8ccc9c(c8F)n(C)c(=O)n9C8CCC(=O)NC8=O)CC7)CC6)CC5)nc4c3F)c12` (stereo not drawn) [Compound 231]: the greatest degradation seen (Dmax) was > 70% and the DC50 was < 5.1 µM.
For `C#Cc1c(F)ccc2cc(O)cc(-c3ncc4c(N5CC6CCC(C5)N6)nc(OCCN5CCC6(CC5)CCN(CC5CCN(c7cccc8c7CN(C7CCC(=O)NC7=O)C8=O)CC5)CC6)nc4c3F)c12` (stereo not drawn) [Compound 132, 3-(4-{4-[(9-{2-[(4-{3,8-diazabicyclo[3.2.1]octan-3-yl}-7-(8-ethynyl-7-fluoro-3-hydroxynaphthalen-1-yl)-8-fluoropyrido[4,3-d]pyrimidin-2-yl)oxy]ethyl}-3,9-diazaspiro[5.5]undecan-3-yl)methyl]piperidin-1-yl}-1-oxo-2,3-dihydro-1H-isoindol-2-yl)piperidine-2,6-dione], in that order: > 70% and < 5.1 µM.
As to `C#Cc1c(F)ccc2cc(O)cc(-c3ncc4c(N5CC6CCC(C5)N6)nc(OCC5(CN6CCC(CN7CCN(c8ccc9c(c8)n(C)c(=O)n9C8CCC(=O)NC8=O)CC7)CC6)CC5)nc4c3F)c12` (stereo not drawn) [Compound 189, 3-{5-[4-({1-[(1-{[(4-{3,8-diazabicyclo[3.2.1]octan-3-yl}-7-(8-ethynyl-7-fluoro-3-hydroxynaphthalen-1-yl)-8-fluoropyrido[4,3-d]pyrimidin-2-yl)oxy]methyl}cyclopropyl)methyl]piperidin-4-yl}methyl)piperazin-1-yl]-3-methyl-2-oxo-2,3-dihydro-1H-1,3-benzodiazol-1-yl}piperidine-2,6-dione], the maximal degradation (Dmax) is > 70% and the DC50 is < 5.1 µM.
On to `CCc1cccc2cc(O)cc(-c3ncc4c(N5CC6CCC(C5)N6C)nc(OC[C@]56CCCN5[C@@H](COC(=O)N5CCN(c7ccc8c(c7)CN(C7CCC(=O)NC7=O)C8=O)CC5)CC6)nc4c3F)c12` (stereo partly drawn) [Compound 48, [(3R,8R)-8-[[7-(8-ethyl-3-hydroxy-1-naphthyl)-8-fluoro-4-(8-methyl-3,8-diazabicyclo[3.2.1]octan-3-yl)pyrido[4,3-d]pyrimidin-2-yl]oxymethyl]-1,2,3,5,6,7-hexahydropyrrolizin-3-yl]methyl4-[2-(2,6-dioxo-3-piperidyl)-1-oxo-isoindolin-5-yl]piperazine-1-carboxylate], for which the DC50 was > 1 µM.

The values are drawn from patent US12448399B2, “Cereblon-based KRAS degrading PROTACs and uses related thereto” (Arvinas Operations, Inc., priority 2023, dated 2025).
